Assay results reported in patent US20220389061A1, “IMMUNOMODULATORS” (priority 2019, published 2022).
Starred links: 1 amine or outer side, 2 acyl side, 3 side chain; linkers in the order of their positions; H or OH if unused. Positions of bridges follow the written chain, without caps; N, C: chain ends. Non-standard residues stand in square brackets, D forms with d. Residues, ends and D or L forms follow the SMILES beside them. Groups on a side chain read outwards from the residue. *: point of attachment. Trp(1-CH2CO2Me) = COC(=O)Cn1cc(C[C@H](N)C(=O)O)c2ccccc21; Trp(1-CH2COOH) = N[C@@H](Cc1cn(CC(=O)O)c2ccccc12)C(=O)O; Acridine9carbonyl = O=C(c1c2ccccc2nc2ccccc12)*; Benzofuran(2-CO) = O=C(c1cc2ccccc2o1)*; X8 = NC(=O)c1c[nH]c2c(NC(=S)*)cccc12; X67 = S=C(Nc1c(Cl)c(Cl)cc(Cl)c1Cl)*; X95 = O=[N+]([O-])c1cccc(NC(=S)*)c1; X38 = N#Cc1c[nH]c2c(NC(=S)*)cccc12; Hyp = O=C(O)[C@@H]1C[C@@H](O)CN1; X70 = Cc1coc2c(F)cc(NC(=S)*)cc12; X3 = S=C(Nc1ccc(Oc2ccccc2)cc1)*; X94 = S=C(Nc1ccc(N2CCOCC2)nc1)*; NMeNle = CCCC[C@H](NC)C(=O)O; X12 = S=C(Nc1ccc2ccccc2c1)*; X54 = S=C(Nc1cccc2ncccc12)*; NMeA = CN[C@@H](C)C(=O)O; Dab = NCC[C@H](N)C(=O)O; Dap = NC[C@H](N)C(=O)O; X77 = Clc1cccc(N*)c1Cl; CO = O=C([*:1])[*:2]

Each compound was assayed against T1, PD-1/PD-L1 (Homo sapiens, UniProt Q9NZQ7) (assay: PD-1/PD-L1 Homogenous Time-Resolved Fluorescence (HTRF) binding assay). Settings: not given.
T1 construct: TVMV protease site linker (C); made in house; host or cells: HEK293T cells
T1 sequence (Q9NZQ7 18-239): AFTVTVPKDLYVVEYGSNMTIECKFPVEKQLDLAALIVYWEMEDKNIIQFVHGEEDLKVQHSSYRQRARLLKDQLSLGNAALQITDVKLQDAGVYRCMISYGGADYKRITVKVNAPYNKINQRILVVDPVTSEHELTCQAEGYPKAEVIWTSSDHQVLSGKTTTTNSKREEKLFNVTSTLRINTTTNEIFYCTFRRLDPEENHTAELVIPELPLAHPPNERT
In short: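 HTRF read-out using europium cryptate anti-Ig (1 nM) and APC anti-His (20 nM) on extracellular-domain fusion proteins in dPBS/0.1% BSA/0.05% Tween-20. Inhibitor first incubated 15 min with 10 nM PD-L1-His, followed by 20 nM PD-1-Ig for another 15 min.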
Compound `CCCC[C@H]1C(=O)N(C)[C@@H](CCCC)C(=O)N[C@@H](CC(C)C)C(=O)N[C@H](C(=O)NCC(N)=O)CSCC(=O)N[C@@H](Cc2ccc(O)cc2)C(=O)N(C)[C@@H](C)C(=O)N[C@@H](CC(N)=O)C(=O)N2CCC[C@H]2C(=O)N[C@@H](CNC(=S)Nc2cccc([N+](=O)[O-])c2)C(=O)N[C@@H](CC(C)C)C(=O)N2C[C@H](O)C[C@H]2C(=O)N[C@@H](Cc2c[nH]c3ccccc23)C(=O)N[C@@H](CCNC(=S)Nc2cccc([N+](=O)[O-])c2)C(=O)N[C@@H](Cc2cn(CC(=O)O)c3ccccc23)C(=O)N1C` [Example 1036] ({CH2CO}-Y[NMeA]NP[Dap](X95)L[Hyp]W[Dab](X95)[Trp(1-CH2COOH)][NMeNle][NMeNle]LCG-NH2; thioether N-14) has an IC50 of 2.6 nM. In the case of `CCCC[C@H]1C(=O)N(C)[C@@H](CCCC)C(=O)N[C@@H](CC(C)C)C(=O)N[C@H](C(=O)NCC(N)=O)CSCC(=O)N[C@@H](Cc2ccc(O)cc2)C(=O)N(C)[C@@H](C)C(=O)N[C@@H](CC(N)=O)C(=O)N2CCC[C@H]2C(=O)N[C@@H](CNC(=O)Nc2cccc(Cl)c2Cl)C(=O)N[C@@H](CC(C)C)C(=O)N2C[C@H](O)C[C@H]2C(=O)N[C@@H](Cc2c[nH]c3ccccc23)C(=O)N[C@@H](CCNC(=O)Nc2cccc(Cl)c2Cl)C(=O)N[C@@H](Cc2cn(CC(=O)O)c3ccccc23)C(=O)N1C` [Example 1084] ({CH2CO}-Y[NMeA]NP[Dap]([CO-X77])L[Hyp]W[Dab]([CO-X77])[Trp(1-CH2COOH)][NMeNle][NMeNle]LCG-NH2; thioether N-14), the IC50 is reported as 2.6 nM.

Same assay, conditions: PD-L1-His 10 nM pre-incubated with inhibitor, PD-1-Ig 20 nM; read-out: HTRF IC50
For `CCCC[C@H]1C(=O)N(C)[C@@H](CCCC)C(=O)N[C@@H](CC(C)C)C(=O)N[C@H](C(=O)NCC(N)=O)CSCC(=O)N[C@@H](Cc2ccc(O)cc2)C(=O)N(C)[C@@H](C)C(=O)N[C@@H](CC(N)=O)C(=O)N2CCC[C@H]2C(=O)N[C@@H](CNC(=O)c2cc3ccccc3o2)C(=O)N[C@@H](CC(C)C)C(=O)N2C[C@H](O)C[C@H]2C(=O)N[C@@H](Cc2c[nH]c3ccccc23)C(=O)N[C@@H](CCN)C(=O)N[C@@H](Cc2cn(CC(=O)O)c3ccccc23)C(=O)N1C` [Example 3034] ({CH2CO}-Y[NMeA]NP[Dap](Benzofuran(2-CO))L[Hyp]W[Dab][Trp(1-CH2COOH)][NMeNle][NMeNle]LCG-NH2; thioether N-14), the IC50 was 3.2 nM. Work on `CCCC[C@H]1C(=O)N(C)[C@@H](CCCC)C(=O)N[C@@H](CC(C)C)C(=O)N[C@H](C(=O)NCC(N)=O)CSCC(=O)N[C@@H](Cc2ccc(O)cc2)C(=O)N(C)[C@@H](C)C(=O)N[C@@H](CC(N)=O)C(=O)N2CCC[C@H]2C(=O)N[C@@H](CNC(=S)Nc2ccc(N3CCOCC3)nc2)C(=O)N[C@@H](CC(C)C)C(=O)N2C[C@H](O)C[C@H]2C(=O)N[C@@H](Cc2c[nH]c3ccccc23)C(=O)N[C@@H](CCNC(=S)Nc2ccc(N3CCOCC3)nc2)C(=O)N[C@@H](Cc2cn(CC(=O)O)c3ccccc23)C(=O)N1C` [Example 1093] ({CH2CO}-Y[NMeA]NP[Dap](X94)L[Hyp]W[Dab](X94)[Trp(1-CH2COOH)][NMeNle][NMeNle]LCG-NH2; thioether N-14) yielded an IC50 of 3.3 nM. For `CCCC[C@H]1C(=O)N(C)[C@@H](CCCC)C(=O)N[C@@H](CC(C)C)C(=O)N[C@H](C(=O)NCC(N)=O)CSCC(=O)N[C@@H](Cc2ccc(O)cc2)C(=O)N(C)[C@@H](C)C(=O)N[C@@H](CC(N)=O)C(=O)N2CCC[C@H]2C(=O)N[C@@H](CNC(=S)Nc2cccc3c(C#N)c[nH]c23)C(=O)N[C@@H](CC(C)C)C(=O)N2C[C@H](O)C[C@H]2C(=O)N[C@@H](Cc2c[nH]c3ccccc23)C(=O)N[C@@H](CCNC(=S)Nc2cccc3c(C#N)c[nH]c23)C(=O)N[C@@H](Cc2cn(CC(=O)O)c3ccccc23)C(=O)N1C` [Example 3051] ({CH2CO}-Y[NMeA]NP[Dap](X38)L[Hyp]W[Dab](X38)[Trp(1-CH2COOH)][NMeNle][NMeNle]LCG-NH2; thioether N-14), the IC50 was 4.5 nM. Work on `CCCC[C@H]1C(=O)N(C)[C@@H](CCCC)C(=O)N[C@@H](CC(C)C)C(=O)N[C@H](C(=O)NCC(N)=O)CSCC(=O)N[C@@H](Cc2ccc(O)cc2)C(=O)N(C)[C@@H](C)C(=O)N[C@@H](CC(N)=O)C(=O)N2CCC[C@H]2C(=O)N[C@@H](CNC(=S)Nc2cc(F)c3occ(C)c3c2)C(=O)N[C@@H](CC(C)C)C(=O)N2C[C@H](O)C[C@H]2C(=O)N[C@@H](Cc2c[nH]c3ccccc23)C(=O)N[C@@H](CCN)C(=O)N[C@@H](Cc2cn(CC(=O)O)c3ccccc23)C(=O)N1C` [Example 3054] ({CH2CO}-Y[NMeA]NP[Dap](X70)L[Hyp]W[Dab][Trp(1-CH2COOH)][NMeNle][NMeNle]LCG-NH2; thioether N-14) yielded an IC50 of 1.3 nM. For `CCCC[C@H]1C(=O)N(C)[C@@H](CCCC)C(=O)N[C@@H](CC(C)C)C(=O)N[C@H](C(=O)NCC(N)=O)CSCC(=O)N[C@@H](Cc2ccc(O)cc2)C(=O)N(C)[C@@H](C)C(=O)N[C@@H](CC(N)=O)C(=O)N2CCC[C@H]2C(=O)N[C@@H](CNC(=S)Nc2c(Cl)c(Cl)cc(Cl)c2Cl)C(=O)N[C@@H](CC(C)C)C(=O)N2C[C@H](O)C[C@H]2C(=O)N[C@@H](Cc2c[nH]c3ccccc23)C(=O)N[C@@H](CCN)C(=O)N[C@@H](Cc2cn(CC(=O)O)c3ccccc23)C(=O)N1C` [Example 1110] ({CH2CO}-Y[NMeA]NP[Dap](X67)L[Hyp]W[Dab][Trp(1-CH2COOH)][NMeNle][NMeNle]LCG-NH2; thioether N-14), the IC50 was 2 nM. Work on `CCCC[C@H]1C(=O)N(C)[C@@H](CCCC)C(=O)N[C@@H](CC(C)C)C(=O)N[C@H](C(=O)NCC(N)=O)CSCC(=O)N[C@@H](Cc2ccc(O)cc2)C(=O)N(C)[C@@H](C)C(=O)N[C@@H](CC(N)=O)C(=O)N2CCC[C@H]2C(=O)N[C@@H](CNC(=S)Nc2ccc(Oc3ccccc3)cc2)C(=O)N[C@@H](CC(C)C)C(=O)N2C[C@H](O)C[C@H]2C(=O)N[C@@H](Cc2c[nH]c3ccccc23)C(=O)N[C@@H](CCNC(=S)Nc2ccc(Oc3ccccc3)cc2)C(=O)N[C@@H](Cc2cn(CC(=O)O)c3ccccc23)C(=O)N1C` [Example 1080] ({CH2CO}-Y[NMeA]NP[Dap](X3)L[Hyp]W[Dab](X3)[Trp(1-CH2COOH)][NMeNle][NMeNle]LCG-NH2; thioether N-14) yielded an IC50 of 3.4 nM. Compound `CCCC[C@H]1C(=O)N(C)[C@@H](CCCC)C(=O)N[C@@H](CC(C)C)C(=O)N[C@H](C(=O)NCC(N)=O)CSCC(=O)N[C@@H](Cc2ccc(O)cc2)C(=O)N(C)[C@@H](C)C(=O)N[C@@H](CC(N)=O)C(=O)N2CCC[C@H]2C(=O)N[C@@H](CNC(=S)Nc2ccc3ccccc3c2)C(=O)N[C@@H](CC(C)C)C(=O)N2C[C@H](O)C[C@H]2C(=O)N[C@@H](Cc2c[nH]c3ccccc23)C(=O)N[C@@H](CCNC(=S)Nc2ccc3ccccc3c2)C(=O)N[C@@H](Cc2cn(CC(=O)O)c3ccccc23)C(=O)N1C` [Example 3014] ({CH2CO}-Y[NMeA]NP[Dap](X12)L[Hyp]W[Dab](X12)[Trp(1-CH2COOH)][NMeNle][NMeNle]LCG-NH2; thioether N-14) has an IC50 of 4.9 nM. In the case of `CCCC[C@H]1C(=O)N(C)[C@@H](CCCC)C(=O)N[C@@H](CC(C)C)C(=O)N[C@H](C(=O)NCC(N)=O)CSCC(=O)N[C@@H](Cc2ccc(O)cc2)C(=O)N(C)[C@@H](C)C(=O)N[C@@H](CC(N)=O)C(=O)N2CCC[C@H]2C(=O)N[C@@H](CNC(=O)c2c3ccccc3nc3ccccc23)C(=O)N[C@@H](CC(C)C)C(=O)N2C[C@H](O)C[C@H]2C(=O)N[C@@H](Cc2c[nH]c3ccccc23)C(=O)N[C@@H](CCNC(=O)c2c3ccccc3nc3ccccc23)C(=O)N[C@@H](Cc2cn(CC(=O)OC)c3ccccc23)C(=O)N1C` [Example 2003] ({CH2CO}-Y[NMeA]NP[Dap](Acridine9carbonyl)L[Hyp]W[Dab](Acridine9carbonyl)[Trp(1-CH2CO2Me)][NMeNle][NMeNle]LCG-NH2; thioether N-14), the IC50 is reported as 22.6 nM. Work on `CCCC[C@H]1C(=O)N(C)[C@@H](CCCC)C(=O)N[C@@H](CC(C)C)C(=O)N[C@H](C(=O)NCC(N)=O)CSCC(=O)N[C@@H](Cc2ccc(O)cc2)C(=O)N(C)[C@@H](C)C(=O)N[C@@H](CC(N)=O)C(=O)N2CCC[C@H]2C(=O)N[C@@H](CNC(=S)Nc2cccc([N+](=O)[O-])c2)C(=O)N[C@@H](CC(C)C)C(=O)N2C[C@H](O)C[C@H]2C(=O)N[C@@H](Cc2c[nH]c3ccccc23)C(=O)N[C@@H](CCN)C(=O)N[C@@H](Cc2cn(CC(=O)O)c3ccccc23)C(=O)N1C` [Example 1037] ({CH2CO}-Y[NMeA]NP[Dap](X95)L[Hyp]W[Dab][Trp(1-CH2COOH)][NMeNle][NMeNle]LCG-NH2; thioether N-14) yielded an IC50 of 2.8 nM. Compound `CCCC[C@H]1C(=O)N(C)[C@@H](CCCC)C(=O)N[C@@H](CC(C)C)C(=O)N[C@H](C(=O)NCC(N)=O)CSCC(=O)N[C@@H](Cc2ccc(O)cc2)C(=O)N(C)[C@@H](C)C(=O)N[C@@H](CC(N)=O)C(=O)N2CCC[C@H]2C(=O)N[C@@H](CNC(=S)Nc2cccc3ncccc23)C(=O)N[C@@H](CC(C)C)C(=O)N2C[C@H](O)C[C@H]2C(=O)N[C@@H](Cc2c[nH]c3ccccc23)C(=O)N[C@@H](CCNC(=S)Nc2cccc3ncccc23)C(=O)N[C@@H](Cc2cn(CC(=O)O)c3ccccc23)C(=O)N1C` [Example 3024] ({CH2CO}-Y[NMeA]NP[Dap](X54)L[Hyp]W[Dab](X54)[Trp(1-CH2COOH)][NMeNle][NMeNle]LCG-NH2; thioether N-14) has an IC50 of 3.2 nM. `CCCC[C@H]1C(=O)N(C)[C@@H](CCCC)C(=O)N[C@@H](CC(C)C)C(=O)N[C@H](C(=O)NCC(N)=O)CSCC(=O)N[C@@H](Cc2ccc(O)cc2)C(=O)N(C)[C@@H](C)C(=O)N[C@@H](CC(N)=O)C(=O)N2CCC[C@H]2C(=O)N[C@@H](CNC(=S)Nc2cccc3c(C(N)=O)c[nH]c23)C(=O)N[C@@H](CC(C)C)C(=O)N2C[C@H](O)C[C@H]2C(=O)N[C@@H](Cc2c[nH]c3ccccc23)C(=O)N[C@@H](CCN)C(=O)N[C@@H](Cc2cn(CC(=O)O)c3ccccc23)C(=O)N1C` [Example 3017] ({CH2CO}-Y[NMeA]NP[Dap](X8)L[Hyp]W[Dab][Trp(1-CH2COOH)][NMeNle][NMeNle]LCG-NH2; thioether N-14) showed an IC50 of 3.6 nM.
